Earlier results as cited in US20170014414A1, “PHARMACEUTICAL COMPOSITION” (ratiopharm GmbH, priority 2014, published 2017).

Conditions: teaching of WO 2012/088033

SMILES: CC(=O)Nc1cccc(-n2c(=O)n(C3CC3)c(=O)c3c(Nc4ccc(I)cc4F)n(C)c(=O)c(C)c32)c1.C[S+](C)[O-] [trametinib DMSO solvate]
- stability of the solvate on exposure to moisture (during the formulation process): revert to an insoluble desolvated form when exposed to moisture
- photostability: can suffer from photo-instability

SMILES: CC(=O)Nc1cccc(-n2c(=O)n(C3CC3)c(=O)c3c(Nc4ccc(I)cc4F)n(C)c(=O)c(C)c32)c1 [trametinib in its non-solvated form, N-{3-[3-cyclopropyl-5-(2-fluoro-4-iodophenylamino)-6,8-dimethyl-2,4,7-trioxo-3,4,6,7-tetrahydro-2H-pyrido[4,3-d]pyrimidin-1-yl]phenyl}acetamide]
- solubility compared with trametinib DMSO solvate: much less soluble than trametinib DMSO solvate
